From ChEMBL document CHEMBL1201862, “PubChem BioAssay data set” (2004)
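Compound exposure: 48 hours, 5 concentrations, 96-well plates. GI50 = concentration required for 50% inhibition of growth.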 Calls of active or inactive are those of the source. Rule as the data show it: active = GI50 up to about 1.1 µM and inactive = higher.

Experiments:
Assay in all cases: NCI tumour cell line growth inhibition, 48 h
[1] = test system: ACHN
[2] = test system: CAKI-1
[3] = test system: DMS-114
[4] = test system: DMS-273
[5] = test system: HL-60
[6] = test system: HOP-62
[7] = test system: KM-20L2
[8] = test system: M14
[9] = test system: NCI-H226
[10] = test system: OVCAR-4
[11] = test system: SR
[12] = test system: MCF7
[13] = test system: NCI/ADR-RES
[14] = test system: SF-539
[15] = test system: SNB-19

Measured: GI50

C[C@H](O)C(=O)SC[C@H](NC(=O)CC[C@@H](N)C(=O)O)C(=O)NCC(=O)O
inactive: [1] > 100 µM | [2] > 100 µM | [3] > 100 µM | [4] > 100 µM | [5] > 10 µM | [6] > 100 µM | [7] > 100 µM | [8] > 100 µM | [9] > 100 µM | [10] > 100 µM | [11] > 100 µM

C/C=C/C1=CC(=O)C(O)C1O (centres undefined)
inactive: [2] 14.5 µM | [3] 22 µM | [4] 25.9 µM | [5] 15.1 µM | [6] 47.6 µM | [7] 28.2 µM | [12] 30.8 µM | [9] 24.1 µM | [13] 25.5 µM | [10] 37.1 µM | [14] 23.9 µM | [15] 37.2 µM

O=C(c1nc2ccc(Cl)cc2nc1O)C(O)c1ccccc1 (centres undefined)
inactive: [1] 39 µM | [2] 65.5 µM | [3] 56.5 µM | [4] 98.6 µM | [5] 9.86 µM | [6] > 100 µM | [7] 76 µM | [8] > 100 µM | [9] 84.7 µM | [10] 14.3 µM | [14] 57.7 µM | [15] > 100 µM | [11] 13 µM

Cc1csc(/N=C(/NCCN2CCOCC2)Nc2nc(C)cs2)n1
inactive: [2] > 76.2 µM | [3] > 100 µM | [4] > 100 µM | [5] 60.7 µM | [6] > 100 µM | [7] > 100 µM | [12] > 84.5 µM | [9] > 100 µM | [13] > 100 µM | [10] > 100 µM | [14] > 100 µM | [15] > 100 µM

COC(=O)C(C/C=C(\C)c1ccc(Cl)cc1)C(C)=O (centres undefined)
inactive: [3] 19.9 µM | [4] 32.7 µM | [5] 14.6 µM | [6] > 56 µM | [7] 35.9 µM | [12] 37.7 µM | [9] 24.6 µM | [13] 23.7 µM | [10] 27.2 µM | [14] 99.5 µM | [15] > 100 µM
